Data published in article PMC2932867 (Human mutation, 2010).
Numbering of substitutions follows the chain as printed. Names and notes keep the numbering of the source.

T1: human ATR (ATP:cob(I)alamin adenosyltransferase; hATR) (Homo sapiens, UniProt Q96EY8)
T1 sequence (Q96EY8 33-250): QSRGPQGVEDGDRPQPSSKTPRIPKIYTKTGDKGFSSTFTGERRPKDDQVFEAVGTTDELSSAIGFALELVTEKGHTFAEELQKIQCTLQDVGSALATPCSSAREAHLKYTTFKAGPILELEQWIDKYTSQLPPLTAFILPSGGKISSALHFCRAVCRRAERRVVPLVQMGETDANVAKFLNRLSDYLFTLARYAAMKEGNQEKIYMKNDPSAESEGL

T2: human ATR (ATP:cob(I)alamin adenosyltransferase; hATR) (Homo sapiens, UniProt Q96EY8, I96T)
T2 sequence (Q96EY8 33-250 I96T): T1 sequence (Q96EY8 33-250) with I64T

B1: ATP:cob(I)alamin adenosyltransferase p.I96T mutant, human, without the mitochondrial targeting sequence (enzyme, UniProt Q96EY8 33-250, looked up)
chain: T1 sequence (Q96EY8 33-250) with I64T

How the values were obtained:
[1] = molecular target: T1, human ATR (ATP:cob(I)alamin adenosyltransferase; hATR); test: intrinsic fluorescence titration; type: binding; settings: read-out: wild-type; 50 mM Tris-HCl pH 8.0
[2] = molecular target: T2, human ATR (ATP:cob(I)alamin adenosyltransferase; hATR); test: intrinsic fluorescence titration; type: binding; settings: read-out: p.I96T; 50 mM Tris-HCl pH 8.0
[3] = molecular target: the molecule itself; test: SEC

Row | Molecule | Kd [1] [µM] | Kd [2] [µM] | stoichiometry N [3]
1 | CNCbl | 7.8 ± 0.5 | 13.3 ± 0.3 | –
2 | B1 | – | – | 3
